Measured values from US20160333419A1, “GENE SIGNATURES ASSOCIATED WITH SENSITIVITY TO MDM2 INHIBITORS” (DAIICHI SANKYO COMPANY, LIMITED, priority 2014, published 2016).

Legend:
IMR-32 = test: OncoPanel cytotoxicity assay; format: cell-based; conditions: Homo sapiens, 72 hour incubation
How it was run: (§1)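 Cells grown in RPMI 1640 with 10% FBS (or a special medium) at 37° C, 5% CO2 were treated 24 hours after seeding for 72 hours with 10 concentrations (3.16-fold dilutions, 0.1% DMSO final). Nuclei were dye-stained and imaged; IC50 was fit from percent of control relative cell count.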

MDA-MB-175-VII = test: OncoPanel cytotoxicity assay; format: cell-based; conditions: Homo sapiens, 72 hour incubation
How it was run: as §1

T84 = test: OncoPanel cytotoxicity assay; format: cell-based; conditions: Homo sapiens, 72 hour incubation
How it was run: as §1

WM-115 = test: OncoPanel cytotoxicity assay; format: cell-based; conditions: Homo sapiens, 72 hour incubation
How it was run: as §1

ZR-75-1 = test: OncoPanel cytotoxicity assay; format: cell-based; conditions: Homo sapiens, 72 hour incubation
How it was run: as §1

COR-L105 = test: OncoPanel cytotoxicity assay; format: cell-based; conditions: Homo sapiens, 72 hour incubation
How it was run: as §1

OE33 = test: OncoPanel cytotoxicity assay; format: cell-based; conditions: Homo sapiens, 72 hour incubation
How it was run: as §1

CTG-0069 Colorectal = test: Champions TumorGraft model, tumor growth inhibition; format: in vivo, mice; conditions: 100 mg/kg/dose p.o./qd × 10, TGI evaluation Day 11
Description: (§2) Patient-derived xenograft models (Champions TumorGraftTM; Champions Oncology, Inc., Hackensack, N.J.) were used. Champions TumorGraftsTM provide a highly focused, accelerated translational platform, which is based upon the implantation of primary human tumors in immune-deficient mice followed by propagation of the resulting low-passage Champions TumorGraftsTM in a manner that preserves the biological characteristics of the original human tumor. […] The TumorGraftsTM models allow a comparison of gene expression analysis of patients' cancer samples and Champions TumorGraftTM samples by microarray expression analysis. Large numbers (e.g., 30,000) of genes are analyzed. […] Female immunocompromised nu/nu mice (Harlan) between 6-9 weeks of age were housed on irradiated […]-enriched 1⁄8'' corncob bedding ([…]) in individual HEPA ventilated cages (Innocage® IVC, Innovive USA) and were kept on a 12-hour light-dark cycle at 68-74° F. (20-23° C.) and 30-70% humidity. Animals were fed water ad libitum (reverse osmosis, 2 ppm C12) and an irradiated Test rodent diet (Teklad 2919) consisting of 19% protein, 9% fat, and 4% fiber. Animals were implanted bilaterally in the flank region with tumor fragments harvested from tumored host animals, each implanted from a specific passage lot. Pre-study tumor volumes were recorded for each experiment beginning approximately one week prior to its estimated start date. When tumors reached approximately 125-250 mm^3, animals were matched by tumor volume into treatment and control groups, and dosing was initiated (Day 0). Animals in all studies were tagged and followed individually throughout the experiment. Initial dosing for standard agents began on Day 0; animals in all groups were dosed by weight (0.01 ml per gram; 10 ml/kg). Dose concentration(s), route(s) of administration and schedule(s) for each group are listed in the Experimental Design section, wherein “p.o./qd×10” indicates orally (by mouth) daily for 10 days. The experimental design of the human tumor graft model study is presented below in Table 4. “n” indicates the number of animals per group; “ROA” indicates route of administration of the test agent, i.e., the MDM2i drug. Beginning on Day 0, tumor dimensions were measured twice weekly by digital caliper and data including individual and mean estimated tumor volumes (Mean TV±SEM) were recorded for each group. Tumor volume was calculated using the formula (1): TV=width^2×length×0.52. At study completion, percent tumor growth inhibition (% TGI) values were calculated and reported for each treatment group (T) versus control (C) using initial (i) and final (f) tumor measurements and the formula (2): % TGI=1-Tf-Ti/Cf-C. The tumor growth inhibition (TGI) values on the scheduled dates closest to the last administration are summarized Table 5 below. In this example, the study duration was defined by the tumor size of the vehicle control. In some cases, for example, that of CTG-0213 in Table 5, required a longer time period for the tumor to reach a threshold size. As a result, the test animals treated with the MDM2i Compound B were also left for a longer time period, e.g., 40 days in the case of CTG-0213, without MDM2i treatment. […] Thus, the evaluation of TGI was set to be near the end of the treatment period, such as around Day 7-11 (around Day 9).

CTG-0159 NSCLC = test: as above; format: in vivo, mice; conditions: 100 mg/kg/dose p.o./qd × 10, TGI evaluation Day 11
Description: as §2

CTG-0201 Melanoma = test: as above; format: in vivo, mice; conditions: 100 mg/kg/dose p.o./qd × 10, TGI evaluation Day 10
Description: as §2

CTG-0203 Melanoma = test: as above; format: in vivo, mice; conditions: 100 mg/kg/dose p.o./qd × 10, TGI evaluation Day 11
Description: as §2

CTG-0213 Melanoma = test: as above; format: in vivo, mice; conditions: 100 mg/kg/dose p.o./qd × 10, TGI evaluation Day 7
Description: as §2

CTG-0282 Pancreatic = test: as above; format: in vivo, mice; conditions: 100 mg/kg/dose p.o./qd × 10, TGI evaluation Day 11
Description: as §2

CTG-0500 Melanoma = test: as above; format: in vivo, mice; conditions: 100 mg/kg/dose p.o./qd × 10, TGI evaluation Day 7
Description: as §2

CTG-0501 Melanoma = test: as above; format: in vivo, mice; conditions: 100 mg/kg/dose p.o./qd × 10, TGI evaluation Day 11
Description: as §2

CTG-0502 NSCLC = test: as above; format: in vivo, mice; conditions: 100 mg/kg/dose p.o./qd × 10, TGI evaluation Day 10
Description: as §2

SMILES	IC50 (IMR-32)	IC50 (MDA-MB-175-VII)	IC50 (T84)	IC50 (WM-115)	IC50 (ZR-75-1)	IC50 (COR-L105)	IC50 (OE33)	% TGI (CTG-0069 Colorectal)	% TGI (CTG-0159 NSCLC)	% TGI (CTG-0201 Melanoma)	% TGI (CTG-0203 Melanoma)	% TGI (CTG-0213 Melanoma)	% TGI (CTG-0282 Pancreatic)	% TGI (CTG-0500 Melanoma)	% TGI (CTG-0501 Melanoma)	% TGI (CTG-0502 NSCLC)
CC[C@@H]1CNC2(CC2)CN1C(=O)[C@@H]1C[C@@H](F)CN1C(=O)C1=C(C(C)C)N2C(=N[C@@](C)(c3ccc(Cl)nc3)[C@H]2c2ccc(Cl)c(F)c2)S1 [Compound A, [(5R,6S)-5-(4-Chloro-3-fluorophenyl)-6-(6-chloropyridin-3-yl)-6-methyl-3-(propan-2-yl)-5,6-dihydroimidazo[2,1-b][1,3]thiazol-2-yl][(2S,4R)-2-{[(6R)-6-ethyl-4,7-diazaspiro[2.5]oct-7-yl]carbonyl}-4-fluoropyrrolidin-1-yl]methanone]	828 nM	> 40 µM	> 40 µM	564 nM	1500 nM											
CC1(C)CCC2(CC1)N[C@@H](C(=O)N[C@@H]1CC[C@@H](C(N)=O)OC1)[C@H](c1ccnc(Cl)c1F)[C@]21C(=O)Nc2cc(Cl)ccc21 [Compound B, (3′R,4′S,5′R)—N-[(3R,6S)-6-carbamoyltetrahydro-2H-pyran-3-yl]-6″-chloro-4′-(2-chloro-3-fluoropyridin-4-yl)-4,4-dimethyl-2″-oxo-1″,2″-dihydrodispiro[cyclohexane-1,2′-pyrrolidine-3′,3″-indole]-5′-carboxamide]						168 nM	7.58 µM	19%	−13%	−10%	98%	87%	−30%	104%	101%	122%
